In patent US9890407B2, “Method for synthesizing cellulose in vitro” (University of Virginia Patent Foundation, priority 2013, dated 2018):

Molecular target: T1, Rhodobacter sphaeroides BcsA-B complex (cellulose synthase), wild type, BcsA SEQ ID NO: 1, BcsB SEQ ID NO: 3 (Cereibacter sphaeroides, UniProt Q3J125)
T1 construct: pETDuet, E. coli C43; purified, reconstituted in nanodiscs, proteoliposomes or detergent
T1 sequence (Q3J125 1-788): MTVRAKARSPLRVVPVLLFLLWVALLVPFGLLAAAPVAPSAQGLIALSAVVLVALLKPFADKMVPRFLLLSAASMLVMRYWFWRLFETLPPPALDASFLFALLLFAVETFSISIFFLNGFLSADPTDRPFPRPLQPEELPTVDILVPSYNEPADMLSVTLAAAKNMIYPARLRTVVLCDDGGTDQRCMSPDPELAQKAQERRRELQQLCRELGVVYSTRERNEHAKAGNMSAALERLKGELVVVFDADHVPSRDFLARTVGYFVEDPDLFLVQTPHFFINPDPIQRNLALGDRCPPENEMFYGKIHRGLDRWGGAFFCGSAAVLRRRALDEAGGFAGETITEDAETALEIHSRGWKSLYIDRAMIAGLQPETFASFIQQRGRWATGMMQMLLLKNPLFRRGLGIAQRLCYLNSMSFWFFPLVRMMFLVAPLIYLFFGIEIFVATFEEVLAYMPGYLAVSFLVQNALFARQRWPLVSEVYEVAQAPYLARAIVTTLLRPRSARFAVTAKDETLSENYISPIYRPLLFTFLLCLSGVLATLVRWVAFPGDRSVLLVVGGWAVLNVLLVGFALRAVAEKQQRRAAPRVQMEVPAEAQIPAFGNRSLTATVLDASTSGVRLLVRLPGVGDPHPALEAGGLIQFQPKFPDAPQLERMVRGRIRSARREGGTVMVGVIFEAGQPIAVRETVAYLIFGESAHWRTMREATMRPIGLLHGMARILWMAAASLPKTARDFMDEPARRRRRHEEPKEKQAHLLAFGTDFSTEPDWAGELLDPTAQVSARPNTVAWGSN
T1 sequence (Q3J126 21-725 partner): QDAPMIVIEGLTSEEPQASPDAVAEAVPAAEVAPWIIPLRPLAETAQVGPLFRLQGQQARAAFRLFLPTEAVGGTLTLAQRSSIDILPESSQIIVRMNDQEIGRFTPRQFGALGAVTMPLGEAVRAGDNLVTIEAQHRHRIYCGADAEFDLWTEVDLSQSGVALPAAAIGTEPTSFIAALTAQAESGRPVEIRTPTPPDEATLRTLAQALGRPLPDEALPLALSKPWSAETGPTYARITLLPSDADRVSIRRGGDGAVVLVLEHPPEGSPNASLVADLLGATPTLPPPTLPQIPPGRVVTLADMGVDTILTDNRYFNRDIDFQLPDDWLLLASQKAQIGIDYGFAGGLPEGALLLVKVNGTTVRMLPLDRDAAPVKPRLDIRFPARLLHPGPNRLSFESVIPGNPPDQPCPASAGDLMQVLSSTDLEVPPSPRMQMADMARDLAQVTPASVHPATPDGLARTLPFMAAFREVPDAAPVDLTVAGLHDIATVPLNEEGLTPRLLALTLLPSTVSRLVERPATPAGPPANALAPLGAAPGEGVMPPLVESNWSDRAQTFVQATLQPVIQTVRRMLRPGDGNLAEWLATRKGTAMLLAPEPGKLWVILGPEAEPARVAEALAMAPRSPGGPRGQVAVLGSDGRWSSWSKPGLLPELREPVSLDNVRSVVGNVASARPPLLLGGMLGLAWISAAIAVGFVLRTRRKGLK
Test: Cellulose synthesis sedimentation assay, inhibition by nucleoside diphosphates, PL-reconstituted BcsA-B
Format: biochemical
Conditions: 0.5 mM UDP-Glc; increasing nucleotide concentrations; 60 min, 37° C.
Description: FIG. 4A-4C (also referred to as Example 1, FIG. 4): Product inhibition of cellulose synthase. (FIG. 4A) Enzyme-coupled cellulose synthesis assays were performed as described in FIG. 3 in the absence or presence of 0.1 mg/ml E. coli BesZ. […] Inset: Radioactive sedimentation assay performed with ND-reconstituted BcsA-B synthesizing cellulose in the absence or presence of BcsZ. (FIG. 4B) Inhibition of cellulose synthesis by UDP. Cellulose synthesis sedimentation assays were performed with 1 μM PL-reconstituted BesA-B in the presence of increasing concentrations of the indicated nucleotides and 0.5 mM UDP-Glc for 60 min at 37° C. The obtained product is quantified relative to the polymer formed in the absence of any nucleoside diphosphate. (FIG. 4C) UDP is a competitive inhibitor of cellulose synthase. […] The products are quantified relative to the polymer formed in the absence of UDP and the presence of 5 mM UDP-Glc. […]
Standard cellulose synthase sedimentation assays were performed by incubating 1 μM of cellulose synthase complexes, either in PLs, ND or detergent micelles, in the presence of 30 μM c-di-GMP, 20 mM MgCl2, 5 mM UDP-Glc and 0.25 μCi UDP-[3H]-Glc in AB-buffer lacking glycerol and containing only 0.1 M NaCl. […] Following paper chromatography, the high molecular weight polymer retained at the origin was quantified by scintillation counting. […]

| Structure (SMILES) | inhibition of cellulose synthesis by nucleoside diphosphates |
| --- | --- |
| Nc1nc2c(ncn2[C@@H]2O[C@H](COP(=O)(O)OP(=O)(O)O)[C@@H](O)[C@H]2O)c(=O)[nH]1 [guanosine-diphosphate] | do not inhibit cellulose synthesis |
| Nc1ncnc2c1ncn2[C@@H]1O[C@H](COP(=O)(O)OP(=O)(O)O)[C@@H](O)[C@H]1O [adenosine-diphosphate] | do not inhibit cellulose synthesis |
